# Measurements: patent publication US9169260B2 (MERCK SHARP & DOHME CORP., priority 2011, dated 2015)
# Biological target: GST tagged IRAK-4 (Homo sapiens (Human), UniProt Q9NWZ3)
# Test: IRAK-4 Kinase Assay (IMAP fluorescence polarization)
# Assay type: biochemical
# Conditions: not given
# Outline: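 Activity was read by IMAP fluorescence polarization, where phosphopeptide binding to M(III) nanoparticles raises FP. The 30-minute, 25° C reaction used 100 μM ATP, 100 nM RP7030 substrate and 0.5 nM GST-IRAK-4 in pH 7.2 Tris buffer with MgCl2, DTT and Tween 20.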
# Chain of GST tagged IRAK-4 (Q9NWZ3 whole entry): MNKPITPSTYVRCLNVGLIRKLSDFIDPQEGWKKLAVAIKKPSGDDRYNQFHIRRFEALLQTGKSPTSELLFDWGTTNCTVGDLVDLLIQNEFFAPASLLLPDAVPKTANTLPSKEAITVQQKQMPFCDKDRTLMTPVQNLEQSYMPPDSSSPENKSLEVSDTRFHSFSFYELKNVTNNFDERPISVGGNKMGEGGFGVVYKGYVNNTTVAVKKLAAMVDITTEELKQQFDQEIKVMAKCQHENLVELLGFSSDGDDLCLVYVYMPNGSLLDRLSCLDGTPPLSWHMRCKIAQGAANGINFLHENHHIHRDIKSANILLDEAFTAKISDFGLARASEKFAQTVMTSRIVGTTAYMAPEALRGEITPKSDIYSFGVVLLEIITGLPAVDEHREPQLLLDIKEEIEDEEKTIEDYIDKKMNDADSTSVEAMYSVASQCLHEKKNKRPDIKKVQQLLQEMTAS
row,Compound,IC50 [µM]
1,"Cc1ccc(-n2nc(C3CCN(S(C)(=O)=O)CC3)cc2NC(=O)c2cnn3cccnc23)cn1 [Example 168, N-(1-(6-methylpyridin-3-yl)-3-(1-(methylsulfonyl)piperidin-4-yl)-1H-pyrazol-5-yl)pyrazolo[1,5-a]pyrimidine-3-carboxamide]",< 1

# Same assay, conditions: 100 μM ATP, 30 minutes at 25° C.
row,IC50 [µM],Compound
1,< 0.1,"CNS(=O)(=O)c1ccc(-c2cc(NC(=O)c3cnn4cccnc34)n(-c3ccc(C4CC4)cn3)n2)cc1 [Example 151, N-(1-(5-cyclopropylpyridin-2-yl)-3-(4-(N-methylsulfamoyl)phenyl)-1H-pyrazol-5-yl)pyrazolo[1,5-a]pyrimidine-3-carboxamide]"
2,< 0.1,"Cc1ccc(-n2nc(C3CCNCC3)cc2NC(=O)c2cnn3cccnc23)nc1 [Example 152, N-(1-(5-methylpyridin-2-yl)-3-(piperidin-4-yl)-1H-pyrazol-5-yl)pyrazolo[1,5-a]pyrimidine-3-carboxamide]"
3,< 0.1,"Cc1ccc(-n2nc(C3CCN(S(C)(=O)=O)CC3)cc2NC(=O)c2cnn3cccnc23)nc1 [Example 153, N-(1-(5-methylpyridin-2-yl)-3-(1-(methylsulfonyl)piperidin-4-yl)-1H-pyrazol-5-yl)pyrazolo[1,5-a]pyrimidine-3-carboxamide]"
4,< 0.1,"[2H]C([2H])([2H])c1ccc(-n2nc(C3CCN(S(C)(=O)=O)CC3)cc2NC(=O)c2cnn3cccnc23)nc1 [Example 155, N-(1-(5-trideuteromethylpyridin-2-yl)-3-(1-(methylsulfonyl)piperidin-4-yl)-1H-pyrazol-5-yl)pyrazolo[1,5-a]pyrimidine-3-carboxamide]"
5,< 0.1,"CC(C)(CN)c1ccc(-n2nc(C3CCN(S(C)(=O)=O)CC3)cc2NC(=O)c2cnn3cccnc23)nc1 [Example 158, N-(1-(5-(1-amino-2-methylpropan-2-yl)pyridin-2-yl)-3-(1-(methylsulfonyl)piperidin-4-yl)-1H-pyrazol-5-yl)pyrazolo[1,5-a]pyrimidine-3-carboxamide]"
6,< 0.1,"CC(C)(N)c1ccc(-n2nc(C3CCN(S(C)(=O)=O)CC3)cc2NC(=O)c2cnn3cccnc23)nc1 [Example 159, N-(1-(5-(2-aminopropan-2-yl)pyridin-2-yl)-3-(1-(methylsulfonyl)piperidin-4-yl)-1H-pyrazol-5-yl)pyrazolo[1,5-a]pyrimidine-3-carboxamide]"
7,< 0.1,"C[C@@H](N)c1ccc(-n2nc(C3CCN(S(C)(=O)=O)CC3)cc2NC(=O)c2cnn3cccnc23)nc1 [Example 163, (R)—N-(1-(5-(1-aminoethyl)pyridin-2-yl)-3-(1-(methylsulfonyl)piperidin-4-yl)-1H-pyrazol-5-yl)pyrazolo[1,5-a]pyrimidine-3-carboxamide]"
8,< 0.1,"C[C@H](N)c1ccc(-n2nc(C3CCN(S(C)(=O)=O)CC3)cc2NC(=O)c2cnn3cccnc23)nc1 [Example 164, (S)—N-(1-(5-(1-aminoethyl)pyridin-2-yl)-3-(1-(methylsulfonyl)piperidin-4-yl)-1H-pyrazol-5-yl)pyrazolo[1,5-a]pyrimidine-3-carboxamide]"
9,< 0.1,"CS(=O)(=O)N1CCC(c2cc(NC(=O)c3cnn4cccnc34)n(-c3ccc(C=O)cn3)n2)CC1 [Example 165, N-(1-(5-formylpyridine-2-yl)-3-(1-(methylsulfonyl)piperidin-4-yl)-1H-pyrazol-5-yl)pyrazolo[1,5-a]pyrimidine-3-carboxamide]"
10,< 0.1,"Cc1cnc(-n2nc(C3CCN(S(C)(=O)=O)CC3)cc2NC(=O)c2cnn3cccnc23)nc1 [Example 170, N-(1-(5-methylpyrimidin-2-yl)-3-(1-(methylsulfonyl)piperidin-4-yl)-1H-pyrazol-5-yl)pyrazolo[1,5-a]pyrimidine-3-carboxamide]"

# The next lines start with the compound.
row,Compound,IC50 [µM]
1,"COc1ccc(-c2cc(NC(=O)c3cnn4cccnc34)n(-c3ccc(C)cc3)n2)cc1OC [Example 133, N-(3-(3,4-dimethoxyphenyl)-1-(p-tolyl)-1H-pyrazol-5-yl)pyrazolo[1,5-a]pyrimidine-3-carboxamide]",< 0.1
2,"Cc1ccc(-n2nc(-c3ccc(S(C)(=O)=O)cc3)cc2NC(=O)c2cnn3cccnc23)cc1 [Example 134, N-(3-(4-(methylsulfonyl)phenyl)-1-(p-tolyl)-1H-pyrazol-5-yl)pyrazolo[1,5-a]pyrimidine-3-carboxamide]",< 0.1
3,"Cc1ccc(-n2nc(C3=CCNCC3)cc2NC(=O)c2cnn3cccnc23)cc1 [Example 138, N-(3-(1,2,3,6-tetrahydropyridin-4-yl)-1-(p-tolyl)-1H-pyrazol-5-yl)pyrazolo[1,5-a]pyrimidine-3-carboxamide]",< 0.1
4,"Cc1ccc(-n2nc(C3=CCN(S(C)(=O)=O)CC3)cc2NC(=O)c2cnn3cccnc23)cc1 [Example 139, N-(3-(1-(methylsulfonyl)-1,2,3,6-tetrahydropyridin-4-yl)-1-(p-tolyl)-1H-pyrazol-5-yl)pyrazolo[1,5-a]pyrimidine-3-carboxamide]",< 0.1
5,"Cc1ccc(-n2nc(C3=CCN(C)CC3)cc2NC(=O)c2cnn3cccnc23)cc1 [Example 140, N-(3-(1-methyl-1,2,3,6-tetrahydropyridin-4-yl)-1-(p-tolyl)-1H-pyrazol-5-yl)pyrazolo[1,5-a]pyrimidine-3-carboxamide]",< 0.1
6,"Cc1ccc(-n2nc(-c3ccc(CN4CCCC4)cc3)cc2NC(=O)c2cnn3cccnc23)cc1 [Example 143, N-(3-(4-(pyrrolidin-1-ylmethyl)phenyl)-1-(p-tolyl)-1H-pyrazol-5-yl)pyrazolo[1,5-a]pyrimidine-3-carboxamide]",< 0.1
7,Cc1ccc(-n2nc(-c3ccc(CN4CCN(C)CC4)cc3)cc2NC(=O)c2cnn3cccnc23)cc1 [Example 144],< 0.1
8,"Cc1ccc(-n2nc(-c3ccc(CN4CCOCC4)cc3)cc2NC(=O)c2cnn3cccnc23)cc1 [Example 145, N-(3-(4-(morpholinomethyl)phenyl)-1-(p-tolyl)-1H-pyrazol-5-yl)pyrazolo[1,5-a]pyrimidine-3-carboxamide]",< 0.1
9,"O=C(Nc1cc(C2CCNCC2)nn1-c1ccc(C2CC2)cn1)c1cnn2cccnc12 [Example 146, N-(1-(5-cyclopropylpyridin-2-yl)-3-(piperidin-4-yl)-1H-pyrazol-5-yl)pyrazolo[1,5-a]pyrimidine-3-carboxamide]",< 0.1
10,"CN1CCC(c2cc(NC(=O)c3cnn4cccnc34)n(-c3ccc(C4CC4)cn3)n2)CC1 [Example 147, N-(1-(5-cyclopropylpyridin-2-yl)-3-(1-methylpiperidin-4-yl)-1H-pyrazol-5-yl)pyrazolo[1,5-a]pyrimidine-3-carboxamide]",< 0.1
11,"CS(=O)(=O)N1CCC(c2cc(NC(=O)c3cnn4cccnc34)n(-c3ccc(C4CC4)cn3)n2)CC1 [Example 149, N-(1-(5-cyclopropylpyridin-2-yl)-3-(1-(methylsulfonyl)piperidin-4-yl)-1H-pyrazol-5-yl)pyrazolo[1,5-a]pyrimidine-3-carboxamide]",< 0.1

# Same assay, conditions: 100 μM ATP, 30 minutes at 25° C.; μM
row,IC50 [µM],Compound
1,< 1,"O=C(Nc1cc(C2CCN(S(=O)(=O)C3CC3)CC2)nn1-c1ccc(C2CC2)cn1)c1cnn2cccnc12 [Example 150, N-(1-(5-cyclopropylpyridin-2-yl)-3-(1-(cyclopropylsulfonyl)piperidin-4-yl)-1H-pyrazol-5-yl)pyrazolo[1,5-a]pyrimidine-3-carboxamide]"
2,< 1,"NC(=O)c1ccc(-n2nc(C3CCNCC3)cc2NC(=O)c2cnn3cccnc23)nc1 [Example 160, N-(1-(5-carbamoylpyridin-2-yl)-3-(piperidin-4-yl)-1H-pyrazol-5-yl)pyrazolo[1,5-a]pyrimidine-3-carboxamide]"
3,< 1,"Cc1ccc(-n2nc(C3COCCN3)cc2NC(=O)c2cnn3cccnc23)nc1 (stereo not drawn) [Example 166, N-(1-(5-methylpyridin-2-yl)-3-(morpholin-3-yl)-1H-pyrazol-5-yl)pyrazolo[1,5-a]pyrimidine-3-carboxamide]"
4,> 1,"Cc1ccc(-n2nc(C3CCNCC3)cc2NC(=O)c2cnn3cccnc23)cn1 [Example 167, N-(1-(6-methylpyridin-3-yl)-3-(piperidin-4-yl)-1H-pyrazol-5-yl)pyrazolo[1,5-a]pyrimidine-3-carboxamide]"
5,< 1,"Cc1cnc(-n2nc(C3CCN(S(=O)(=O)C4CC4)CC3)cc2NC(=O)c2cnn3cccnc23)nc1 [Example 171, N-(3-(1-(cyclopropylsulfonyl)piperidin-4-yl)-1-(5-methylpyrimidin-2-yl)-1H-pyrazol-5-yl)pyrazolo[1,5-a]pyrimidine-3-carboxamide]"
6,< 1,"CS(=O)(=O)N1CCC(c2cc(NC(=O)c3cnn4cccnc34)n(-c3ccccn3)n2)CC1 [Example 173, N-(3-(1-(methylsulfonyl)piperidin-4-yl)-1-(pyridin-2-yl)-1H-pyrazol-5-yl)pyrazolo[1,5-a]pyrimidine-3-carboxamide]"

# Continued, compound first:
row,Compound,IC50 [µM]
1,"COc1ccc(-c2cc(NC(=O)c3cnn4cccnc34)n(-c3cccc(F)c3)n2)cc1 [Example 132, N-(1-(3-fluorophenyl)-3-(4-methoxyphenyl)-1H-pyrazol-5-yl)pyrazolo[1,5-a]pyrimidine-3-carboxamide]",< 1
2,"Cc1ccc(-n2nc(-c3ccc(F)cc3)cc2NC(=O)c2cnn3cccnc23)cc1 [Example 135, N-(3-(4-fluorophenyl)-1-(p-tolyl)-1H-pyrazol-5-yl)pyrazolo[1,5-a]pyrimidine-3-carboxamide]",> 1
3,"Cc1ccc(-n2nc(-c3cncc(F)c3)cc2NC(=O)c2cnn3cccnc23)cc1 [Example 136, N-(3-(5-fluoropyridin-3-yl)-1-(p-tolyl)-1H-pyrazol-5-yl)pyrazolo[1,5-a]pyrimidine-3-carboxamide]",> 1
4,"Cc1ccc(-n2nc(-c3cncnc3)cc2NC(=O)c2cnn3cccnc23)cc1 [Example 137, N-(3-(pyrimidin-5-yl)-1-(p-tolyl)-1H-pyrazol-5-yl)pyrazolo[1,5-a]pyrimidine-3-carboxamide]",> 1
5,"Cc1ccc(-n2nc(CN3CCCC3)cc2NC(=O)c2cnn3cccnc23)cc1 [Example 142, N-(3-(pyrrolidin-1-ylmethyl)-1-(p-tolyl)-1,4-pyrazol-5-yl)pyrazolo[1,5-a]pyrimidine-3-carboxamide]",> 1
